According to US11097009B2, “CTB-PI polyamide conjugate for activating expression of specific gene” (KYOTO UNIVERSITY, priority 2015, dated 2021):

Columns and labels:
[1] = system: HDAC (nucleus extracts of HeLa cells); assay: HDAC inhibitory activity evaluation (Color de Lys Substrate Deacetylation); assay type: biochemical; conditions: 0.2 mM substrate, 37° C., 30 minutes, absorption at 405 nm
Procedure: Trichostatin A (TSA), SAHA, and CTB were evaluated for their inhibitory activity against Color de Lys™ Substrate Deacetylation using nucleus extracts of HeLa cells. The nucleus extracts of HeLa cells were incubated with 0.2 mM of a substrate at 37° C. After 30 minutes, the reaction was terminated. Then, absorption at 405 nm was measured using Color de Lys™ Developer and thereby evaluated as HDAC inhibitory activity. The strong HDAC inhibitor trichostatin A (TSA) was compared with SAHA and CTB in terms of HDAC inhibitory activity.

[2] = system: Human dermal fibroblasts (HDFs); assay: Microarray analysis of genome-wide gene expression; assay type: cell-based; conditions: 1 μM effector, 48 hours, vs 0.5% DMSO

| SMILES | HDAC inhibitory activity [1] | gene groups whose expression is activated (microarray clustering analysis) [2] |
| --- | --- | --- |
| CCOc1ccccc1C(=O)Nc1ccc(Cl)c(C(F)(F)F)c1 [CTB, N-(4-chloro-3-(trifluoromethyl)phenyl)-2-ethoxybenzamide] | lack HDAC inhibitory activity | activates the expression of a connective tissue disorder-related gene group |
| O=C(CCCCCCC(=O)Nc1ccccc1)NO [SAHA, suberoylanilide hydroxamic acid] |  | activates the expression of cancer- and cardiovascular disease-related gene groups |
